Molecules are shown by their SMILES.

Our source for the IC50 values is BindingDB's records for doi:10.1016/j.bmcl.2008.12.083 (Merck Research Laboratories, 2009).

The target of assay [1] is Histone deacetylase 3 (Homo sapiens, UniProt O15379). Nature of the assay: HDAC Activity Assay. Conditions: 25 °C. Here is the method:
(§1) The Fluor-de-Lys HDAC activity assay kit (Biomol) was used. Purified recombinant HDAC enzyme was incubated with Fluor-de-Lys substrate in the presence of test compounds. Fluor-de-Lys Developer was then added, and the mixture was incubated for another 10 min at room temperature. Fluorescence was measured using a fluorescent plate reader, with excitation 360 nm and emission 460 nm.

For assay [2], the target named is Histone deacetylase 1 (Homo sapiens, UniProt Q13547). The assay can be described thus: HDAC Activity Assay. Conditions: pH 8; 37 °C. Here is the method:
as §1

Chain of Histone deacetylase 3 (O15379 whole entry): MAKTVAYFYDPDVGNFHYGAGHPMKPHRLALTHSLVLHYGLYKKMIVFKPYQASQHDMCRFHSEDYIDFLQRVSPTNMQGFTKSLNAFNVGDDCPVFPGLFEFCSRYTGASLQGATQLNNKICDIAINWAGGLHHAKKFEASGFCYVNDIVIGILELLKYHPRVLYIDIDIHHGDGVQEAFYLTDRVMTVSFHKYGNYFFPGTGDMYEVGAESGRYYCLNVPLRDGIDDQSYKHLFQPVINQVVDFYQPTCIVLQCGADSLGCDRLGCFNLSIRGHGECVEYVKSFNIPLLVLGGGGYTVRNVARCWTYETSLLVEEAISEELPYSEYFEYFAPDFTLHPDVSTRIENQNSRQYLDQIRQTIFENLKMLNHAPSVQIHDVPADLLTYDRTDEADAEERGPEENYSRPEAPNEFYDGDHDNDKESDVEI
Chain of Histone deacetylase 1 (Q13547 whole entry): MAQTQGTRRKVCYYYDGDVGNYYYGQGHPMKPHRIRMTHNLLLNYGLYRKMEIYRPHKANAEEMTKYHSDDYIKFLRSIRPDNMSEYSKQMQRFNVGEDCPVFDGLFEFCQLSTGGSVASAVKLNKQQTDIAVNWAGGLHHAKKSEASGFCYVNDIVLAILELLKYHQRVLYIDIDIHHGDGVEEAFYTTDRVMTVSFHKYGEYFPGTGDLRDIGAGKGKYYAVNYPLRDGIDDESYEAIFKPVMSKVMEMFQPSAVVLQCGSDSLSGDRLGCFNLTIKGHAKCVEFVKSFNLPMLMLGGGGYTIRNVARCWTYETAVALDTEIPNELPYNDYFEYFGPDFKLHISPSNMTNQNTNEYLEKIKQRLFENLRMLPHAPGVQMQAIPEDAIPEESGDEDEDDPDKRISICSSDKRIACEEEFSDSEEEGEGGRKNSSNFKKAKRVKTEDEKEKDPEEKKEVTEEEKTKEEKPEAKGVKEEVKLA

With `Cc1c(CNCc2ccc(C(=O)Nc3cc(-c4ccccc4)ccc3N)cc2)cnn1C` [N-(2-amino-5-phenylphenyl)-4-({[(1,5-dimethyl-1H-pyrazol-4-yl)methyl]amino}methyl)benzamide], inhibition in assay [1] was half-maximal at 19.3 µM (IC50). As to `Nc1ccc(-c2ccc(F)cc2)cc1NC(=O)c1ccc(CN2CCC3(CCCN3)CC2)cc1` [N-[2-amino-5-(4-fluorophenyl)phenyl]-4-{1,8-diazaspiro[4.5]decan-8-ylmethyl}benzamide], the IC50 in assay [2] was 0.013 µM; in assay [1], 4.8 µM.
